Measurements published in patent US4179441A, “Fungidal and herbicidal 2-substituted-3-oxa-3aλ^4, 4-dithia-6-halo-1,5-diazapentalene” (Chevron Research Company, priority 1977, dated 1979).

Test system: Phytophthora infestans
Assay: whole plant or invertebrate
Format: in vivo
Conditions: in Solanum lycopersicum, 168 h, read-out: Tomato Late Blight % Control

Row | Structure (SMILES) | pest or weed control at 250 ppm
1 | ClC1=NSS2=C1N=C(C1CC1)O2 (stereo not drawn) [Compound 21, 2-cyclopropyl-3-oxa-3aλ^4,4-dithia-6-chloro-1,5-diazapentalene] | 97%
2 | ClC1=NSS2=C1N=C(C(Cl)=C(Cl)Cl)O2 (stereo not drawn) [Compound 23, 2-trichlorovinyl-3-oxa-3aλ^4,4-dithia-6-chloro-1,5-diazapentalene] | 98%
3 | ClC1=NSS2=C1N=C(c1ccccc1I)O2 (stereo not drawn) [Compound 28] | 75%

Test system: Alternaria solani
Assay: Tomato Early Blight
Format: in vivo
Conditions: 288 h, 250 ppm spray, inoculated one day later, based on untreated check plants, read-out: Tomato Early blight % Control

Row | Structure (SMILES) | pest or weed control at 250 ppm
4 | ClC1=NSS2=C1N=C(c1ccco1)O2 (stereo not drawn) [Compound 8, 2-(2-furyl)-3-oxa-3aλ^4,4-dithia-6-chloro-1,5-diazapentalene] | 56%
5 | ClC1=NSS2=C1N=C(C(Cl)(Cl)Cl)O2 (stereo not drawn) [Compound 14] | 21%
6 | ClC1=NSS2=C1N=C(C1CC1)O2 (stereo not drawn) [Compound 21, 2-cyclopropyl-3-oxa-3aλ^4,4-dithia-6-chloro-1,5-diazapentalene] | 23%
7 | ClC1=NSS2=C1N=C(COc1ccc(Cl)cc1Cl)O2 (stereo not drawn) [Compound 29] | 69%

Same assay, conditions: 288 h, read-out: Tomato Early blight % Control

Row | Structure (SMILES) | pest or weed control at 250 ppm
8 | ClC1=NSS2=C1N=C(COc1ccc(Cl)cc1)O2 (stereo not drawn) [Compound 25] | 88%

Test system: Septoria apii
Assay: not given
Conditions: in vivo

Row | Structure (SMILES) | Celery Late Blight % Control
9 | FC(F)(F)c1cccc(C2=NC3=S(O2)SN=C3Cl)c1 (stereo not drawn) [Compound 4] | 23%

Test system: Botrytis cinerea
Assay: Botrytis cinerea control (detached horsebean leaves)
Format: in vivo
Conditions: 3 to 5 days
Protocol: Compounds of the invention were tested for Botrytis cinerea control using detached, well-developed primary leaves of a 4-6 week old horsebean plant. […] The leaves were allowed to dry while the filter paper was kept moist by adding water as required. The treated leaves were then inoculated with the spores of Botrytis cinerea fungus grown on potato. The plate was covered after inoculation and kept at 23.5° C. The filter-paper lining of the plate was kept saturated with water throughout the test. The rate of disease incidence was determined in 3 to 5 days, when the disease symptoms were fully evident on non-treated check leaves. […]

Row | Structure (SMILES) | Botrytis Cinerea, micrograms/cm^2 for 99% control of the fungus
10 | ClC1=NSS2=C1N=C(c1ccco1)O2 (stereo not drawn) [Compound 8, 2-(2-furyl)-3-oxa-3aλ^4,4-dithia-6-chloro-1,5-diazapentalene] | 0.15 micrograms/cm^2
11 | ClC1=NSS2=C1N=C(c1c(Cl)cccc1Cl)O2 (stereo not drawn) [Compound 15] | 1.6 micrograms/cm^2
12 | N#CSCC1=NC2=S(O1)SN=C2Cl (stereo not drawn) [Compound 20, 2-thiocyanatomethyl-3-oxa-3aλ^4,4-dithia-6-chloro-1,5-diazapentalene] | 0.88 micrograms/cm^2

Test system: Erysiphe polygoni
Assay: Powdery Mildew (bean seedlings)
Format: in vivo
Conditions: 240 h, 250 ppm spray on bean seedlings, about 10 days, relative to untreated check plants
From the text: The powdery mildew test was made using bean seedlings (var. Bountiful) with well-developed primary leaves. The pathogen was Erysiphe polygoni. The bean seedlings were sprayed with a 250 ppm solution of the test compound in an acetone-water mixture containing a nonionic emulsifier. The treated plants were inoculated one day after spray application of the test compound with the pathogen. […] The rate of infection on the leaves was made after about 10 days. The percent disease control provided by a given test compound was based on the disease reduction relative to untreated check plants.

Row | Structure (SMILES) | pest or weed control at 250 ppm
13 | FC(F)(F)c1cccc(C2=NC3=S(O2)SN=C3Cl)c1 (stereo not drawn) [Compound 4] | 80%
14 | ClC1=NSS2=C1N=C(c1cc(Cl)cc(Cl)c1)O2 (stereo not drawn) [Compound 16] | 23%
15 | N#CSc1cccc(C2=NC3=S(O2)SN=C3Cl)c1 (stereo not drawn) [Compound 22] | 35%
16 | ClC1=NSS2=C1N=C(C(Cl)=C(Cl)Cl)O2 (stereo not drawn) [Compound 23, 2-trichlorovinyl-3-oxa-3aλ^4,4-dithia-6-chloro-1,5-diazapentalene] | 95%
17 | ClC1=NSS2=C1N=C(COc1ccc(Cl)cc1)O2 (stereo not drawn) [Compound 25] | 29%
18 | ClC1=NSS2=C1N=C(c1ccccc1I)O2 (stereo not drawn) [Compound 28] | 69%
19 | ClC1=NSS2=C1N=C(COc1ccc(Cl)cc1Cl)O2 (stereo not drawn) [Compound 29] | 37%

Test system: Pythium ultimum
Assay: Mycelia Inhibition
Format: cell-based
Conditions: mycelial inhibition, 25° C., 24 hours

Row | Structure (SMILES) | Pythium ultimum, micrograms/cm^2 for 99% control of the fungus
20 | FC(F)(F)c1cccc(C2=NC3=S(O2)SN=C3Cl)c1 (stereo not drawn) [Compound 4] | > 1.7 micrograms/cm^2
21 | ClC1=NSS2=C1N=C(c1ccco1)O2 (stereo not drawn) [Compound 8, 2-(2-furyl)-3-oxa-3aλ^4,4-dithia-6-chloro-1,5-diazapentalene] | 0.29 micrograms/cm^2

Test system: Rhizoctonia solani
Assay: Mycelia Inhibition
Format: cell-based
Conditions: mycelial inhibition, 25° C., 24 hours

Row | Structure (SMILES) | Rhizoctonia solani, micrograms/cm^2 for 99% control of the fungus
22 | FC(F)(F)c1cccc(C2=NC3=S(O2)SN=C3Cl)c1 (stereo not drawn) [Compound 4] | 0.65 micrograms/cm^2
23 | ClC1=NSS2=C1N=C(c1ccco1)O2 (stereo not drawn) [Compound 8, 2-(2-furyl)-3-oxa-3aλ^4,4-dithia-6-chloro-1,5-diazapentalene] | 0.34 micrograms/cm^2
24 | N#CSCC1=NC2=S(O1)SN=C2Cl (stereo not drawn) [Compound 20, 2-thiocyanatomethyl-3-oxa-3aλ^4,4-dithia-6-chloro-1,5-diazapentalene] | 0.33 micrograms/cm^2

Test system: Aspergillus niger
Assay: Mycelia Inhibition
Format: cell-based
Conditions: mycelial inhibition, 25° C., 24 hours

Row | Structure (SMILES) | Aspergillus niger, micrograms/cm^2 for 99% control of the fungus
25 | FC(F)(F)c1cccc(C2=NC3=S(O2)SN=C3Cl)c1 (stereo not drawn) [Compound 4] | > 1.7 micrograms/cm^2
26 | ClC1=NSS2=C1N=C(c1ccco1)O2 (stereo not drawn) [Compound 8, 2-(2-furyl)-3-oxa-3aλ^4,4-dithia-6-chloro-1,5-diazapentalene] | 0.49 micrograms/cm^2
27 | N#CSCC1=NC2=S(O1)SN=C2Cl (stereo not drawn) [Compound 20, 2-thiocyanatomethyl-3-oxa-3aλ^4,4-dithia-6-chloro-1,5-diazapentalene] | 0.6 micrograms/cm^2

Test system: Fusarium moniliforme
Assay: Mycelia Inhibition
Format: cell-based
Conditions: mycelial inhibition, 25° C., 24 hours

Row | Structure (SMILES) | Fusarium moniliforme, micrograms/cm^2 for 99% control of the fungus
28 | FC(F)(F)c1cccc(C2=NC3=S(O2)SN=C3Cl)c1 (stereo not drawn) [Compound 4] | > 1.7 micrograms/cm^2
29 | ClC1=NSS2=C1N=C(c1ccco1)O2 (stereo not drawn) [Compound 8, 2-(2-furyl)-3-oxa-3aλ^4,4-dithia-6-chloro-1,5-diazapentalene] | 0.95 micrograms/cm^2
30 | N#CSCC1=NC2=S(O1)SN=C2Cl (stereo not drawn) [Compound 20, 2-thiocyanatomethyl-3-oxa-3aλ^4,4-dithia-6-chloro-1,5-diazapentalene] | > 1.7 micrograms/cm^2

Test system: Crabgrass (Digitaria sanguinalis)
Assay: Pre-Emergent herbicidal test
Format: in vivo
Conditions: 33 micrograms/cm^2, 3 weeks, 0-to-100 scale, 100 = complete kill
Protocol: (§1) Pre-emergent herbicidal tests on representative compounds of the invention were made using the following method:
(§2) An acetone solution of the test compound was prepared by mixing 750 mg of the compound, 220 mg of a nonionic surfactant and 25 ml of acetone. This solution was added to approximately 125 ml of water containing 156 mg of surfactant.
(§3) Seeds of the test vegetation were planted in a pot of soil and the test solution was sprayed uniformly onto the soil surface at a dose of 33 micrograms/cm^2. The pot was watered and placed in a greenhouse. […] At the end of this period, the herbicidal effectiveness of the compound was rated based on the physiological observations. A 0-to-100 scale was used, 0 representing no phytotoxicity, 100 representing complete kill.

Row | Structure (SMILES) | Herbicidal Effectiveness - Pre, C
31 | ClC1=NSS2=C1N=C(COc1ccc(Cl)cc1)O2 (stereo not drawn) [Compound 25] | 70
32 | ClC1=NSS2=C1N=C(COc1cc(Cl)ccc1Cl)O2 (stereo not drawn) [Compound 27] | 55
33 | ClC1=NSS2=C1N=C(COc1ccc(Cl)cc1Cl)O2 (stereo not drawn) [Compound 29] | 97

Test system: Lambsquarter (Chenopodium album)
Assay: Pre-Emergent herbicidal test
Format: in vivo
Conditions: 33 micrograms/cm^2, 3 weeks, 0-to-100 scale, 100 = complete kill
Protocol: as §1, §2, §3

Row | Structure (SMILES) | Herbicidal Effectiveness - Pre, L
34 | ClC1=NSS2=C1N=C(COc1ccc(Cl)cc1)O2 (stereo not drawn) [Compound 25] | 90
35 | ClC1=NSS2=C1N=C(COc1cc(Cl)ccc1Cl)O2 (stereo not drawn) [Compound 27] | 82
36 | ClC1=NSS2=C1N=C(COc1ccc(Cl)cc1Cl)O2 (stereo not drawn) [Compound 29] | 100

Test system: Mustard (Brassica arvensis)
Assay: Pre-Emergent herbicidal test
Format: in vivo
Conditions: 33 micrograms/cm^2, 3 weeks, 0-to-100 scale, 100 = complete kill
Protocol: as §1, §2, §3

Row | Structure (SMILES) | Herbicidal Effectiveness - Pre, M
37 | ClC1=NSS2=C1N=C(COc1ccc(Cl)cc1)O2 (stereo not drawn) [Compound 25] | 95
38 | ClC1=NSS2=C1N=C(COc1cc(Cl)ccc1Cl)O2 (stereo not drawn) [Compound 27] | 87
39 | ClC1=NSS2=C1N=C(COc1ccc(Cl)cc1Cl)O2 (stereo not drawn) [Compound 29] | 100

Test system: Watergrass (Echinochloa crusgalli)
Assay: Pre-Emergent herbicidal test
Format: in vivo
Conditions: 33 micrograms/cm^2, 3 weeks, 0-to-100 scale, 100 = complete kill
Protocol: as §1, §2, §3

Row | Structure (SMILES) | Herbicidal Effectiveness - Pre, W
40 | ClC1=NSS2=C1N=C(COc1ccc(Cl)cc1)O2 (stereo not drawn) [Compound 25] | 20
41 | ClC1=NSS2=C1N=C(COc1cc(Cl)ccc1Cl)O2 (stereo not drawn) [Compound 27] | 55
42 | ClC1=NSS2=C1N=C(COc1ccc(Cl)cc1Cl)O2 (stereo not drawn) [Compound 29] | 95

Test system: Wild Oats (Avena fatua)
Assay: Pre-Emergent herbicidal test
Format: in vivo
Conditions: 33 micrograms/cm^2, 3 weeks, 0-to-100 scale, 100 = complete kill
Protocol: as §1, §2, §3

Row | Structure (SMILES) | Herbicidal Effectiveness - Pre, O
43 | ClC1=NSS2=C1N=C(COc1ccc(Cl)cc1)O2 (stereo not drawn) [Compound 25] | 0
44 | ClC1=NSS2=C1N=C(COc1cc(Cl)ccc1Cl)O2 (stereo not drawn) [Compound 27] | 0
45 | ClC1=NSS2=C1N=C(COc1ccc(Cl)cc1Cl)O2 (stereo not drawn) [Compound 29] | 0

Test system: Wild Oats (Avena fatua)
Assay: Post-emergent herbicidal test
Format: in vivo
Conditions: 0-to-100 scale

Row | Structure (SMILES) | Herbicidal Effectiveness - Post, O
46 | ClC1=NSS2=C1N=C(COc1ccc(Cl)cc1)O2 (stereo not drawn) [Compound 25] | 0
47 | ClC1=NSS2=C1N=C(COc1cc(Cl)ccc1Cl)O2 (stereo not drawn) [Compound 27] | 0
48 | ClC1=NSS2=C1N=C(COc1ccc(Cl)cc1Cl)O2 (stereo not drawn) [Compound 29] | 20

Test system: Watergrass (Echinochloa crusgalli)
Assay: Post-emergent herbicidal test
Format: in vivo
Conditions: 0-to-100 scale

Row | Structure (SMILES) | Herbicidal Effectiveness - Post, W
49 | ClC1=NSS2=C1N=C(COc1ccc(Cl)cc1)O2 (stereo not drawn) [Compound 25] | 0
50 | ClC1=NSS2=C1N=C(COc1cc(Cl)ccc1Cl)O2 (stereo not drawn) [Compound 27] | 0
51 | ClC1=NSS2=C1N=C(COc1ccc(Cl)cc1Cl)O2 (stereo not drawn) [Compound 29] | 20

Test system: Crabgrass (Digitaria sanguinalis)
Assay: Post-emergent herbicidal test
Format: in vivo
Conditions: 0-to-100 scale

Row | Structure (SMILES) | Herbicidal Effectiveness - Post, C
52 | ClC1=NSS2=C1N=C(COc1ccc(Cl)cc1)O2 (stereo not drawn) [Compound 25] | 0
53 | ClC1=NSS2=C1N=C(COc1cc(Cl)ccc1Cl)O2 (stereo not drawn) [Compound 27] | 90
54 | ClC1=NSS2=C1N=C(COc1ccc(Cl)cc1Cl)O2 (stereo not drawn) [Compound 29] | 20

Test system: Mustard (Brassica arvensis)
Assay: Post-emergent herbicidal test
Format: in vivo
Conditions: 0-to-100 scale

Row | Structure (SMILES) | Herbicidal Effectiveness - Post, M
55 | ClC1=NSS2=C1N=C(COc1ccc(Cl)cc1)O2 (stereo not drawn) [Compound 25] | 85
56 | ClC1=NSS2=C1N=C(COc1cc(Cl)ccc1Cl)O2 (stereo not drawn) [Compound 27] | 80
57 | ClC1=NSS2=C1N=C(COc1ccc(Cl)cc1Cl)O2 (stereo not drawn) [Compound 29] | 100

Test system: Lambsquarter (Chenopodium album)
Assay: Post-emergent herbicidal test
Format: in vivo
Conditions: 0-to-100 scale

Row | Structure (SMILES) | Herbicidal Effectiveness - Post, L
58 | ClC1=NSS2=C1N=C(COc1ccc(Cl)cc1)O2 (stereo not drawn) [Compound 25] | 85
59 | ClC1=NSS2=C1N=C(COc1cc(Cl)ccc1Cl)O2 (stereo not drawn) [Compound 27] | 90
60 | ClC1=NSS2=C1N=C(COc1ccc(Cl)cc1Cl)O2 (stereo not drawn) [Compound 29] | 97
